Legend:
[1] = system: A549-ACE2 infected with SARS-CoV-2; experiment: cell count relative to DMSO; higher = less toxic; conditions: 24 h
[2] = system: Caco-2; experiment: cell viability relative to DMSO; higher = less toxic; conditions: 72 h
[3] = system: HepG2; experiment: as above; conditions: 72 h
[4] = system: U2OS; experiment: as above; conditions: 72 h
[5] = system: Vero E6; experiment: as above; conditions: 72 h
[6] = system: A549-ACE2 infected with SARS-CoV-2; experiment: SARS-CoV-2 infection rate relative to DMSO; higher = more infection; conditions: 24 h
[7] = system: A549-ACE2; experiment: phospholipidosis EC50; higher = less potent phospholipidosis inducer
[8] = system: A549-ACE2; experiment: drug-induced phospholipidosis relative to tamoxifen; higher = more phospholipidosis
[9] = system: A549-ACE2 infected with SARS-CoV-2; experiment: morphology score (similarity to uninfected cells); higher = more like uninfected cells; conditions: 24 h
[10] = system: Caco-2; experiment: relative viability EC50 (midpoint between 100% and the lowest measured viability); higher = less toxic; conditions: 72 h
[11] = system: HepG2; experiment: as above; conditions: 72 h
[12] = system: U2OS; experiment: as above; conditions: 72 h
[13] = system: Vero E6; experiment: as above; conditions: 72 h
[14] = system: Caco-2; experiment: drug sensitivity score (DSS) for viability; higher = more toxic; extreme values may be limits of the assay; conditions: 72 h
[15] = system: HepG2; experiment: as above; conditions: 72 h
[16] = system: U2OS; experiment: as above; conditions: 72 h
[17] = system: Vero E6; experiment: as above; conditions: 72 h

O=C(OC(C(F)(F)F)C(F)(F)F)N1CCN(Cc2cccc(Oc3ccccc3)c2)CC1 [JW-642]
Conditions | SARS-CoV-2 infection rate [%] | cell count [%] | cell viability [%] | morphology score | phospholipidosis EC50 [µM]
[1], 0.3 µM | – | 103 | – | – | –
[1], 3 µM | – | 111 | – | – | –
[1], 10 µM | – | 105 | – | – | –
[1], 30 µM | – | 105 | – | – | –
[2], 1 nM | – | – | 98.3 | – | –
[2], 10 nM | – | – | 106 | – | –
[2], 100 nM | – | – | 99.4 | – | –
[2], 1000 nM | – | – | 100 | – | –
[2], 10000 nM | – | – | 92.4 | – | –
[3], 1 nM | – | – | 100 | – | –
[3], 10 nM | – | – | 116 | – | –
[3], 100 nM | – | – | 87.7 | – | –
[3], 1000 nM | – | – | 109 | – | –
[3], 10000 nM | – | – | 101 | – | –
[4], 1 nM | – | – | 101 | – | –
[4], 10 nM | – | – | 98.1 | – | –
[4], 100 nM | – | – | 102 | – | –
[4], 1000 nM | – | – | 95.7 | – | –
[4], 10000 nM | – | – | 97.6 | – | –
[5], 1 nM | – | – | 93.1 | – | –
[5], 10 nM | – | – | 106 | – | –
[5], 100 nM | – | – | 96.3 | – | –
[5], 1000 nM | – | – | 90.5 | – | –
[5], 10000 nM | – | – | 102 | – | –
[6], 0.3 µM | 100 | – | – | – | –
[6], 3 µM | 88 | – | – | – | –
[6], 10 µM | 99 | – | – | – | –
[6], 30 µM | 90 | – | – | – | –
[7], 24 h | – | – | – | – | 0.723
[7], 48 h | – | – | – | – | 1.17
[7], 72 h | – | – | – | – | 1.22
[9], 0.3 µM | – | – | – | -0.02 | –
[9], 3 µM | – | – | – | 0.31 | –
[9], 10 µM | – | – | – | -0.04 | –
[9], 30 µM | – | – | – | 0.29 | –

drug-induced phospholipidosis [%], [8]
Conditions | 0.3 µM | 0.833333 µM | 3.33333 µM | 6.66667 µM | 10 µM | 30 µM
24 h | 6.56 | 21.9 | 39.6 | 46.5 | 46.2 | 54.6
48 h | 5.07 | 23.9 | 54.4 | 65.2 | 57.8 | 68.1
72 h | 4.87 | 23.8 | 62.1 | 70.4 | 64.8 | 73.8

Conditions | drug sensitivity score | relative viability EC50 [µM]
[10] | – | > 10
[11] | – | > 10
[12] | – | > 10
[13] | – | > 10
[14] | 0 | –
[15] | 0 | –
[16] | 0 | –
[17] | 0 | –

N=C(NCCCCCCNC(=N)NC(=N)Nc1ccc(Cl)cc1)NC(=N)Nc1ccc(Cl)cc1 [chlorhexidine]
Conditions | SARS-CoV-2 infection rate [%] | cell count [%] | cell viability [%] | morphology score | phospholipidosis EC50 [µM]
[1], 0.1 µM | – | 103 | – | – | –
[1], 0.3 µM | – | 99 | – | – | –
[1], 1 µM | – | 107 | – | – | –
[1], 3 µM | – | 106 | – | – | –
[2], 1 nM | – | – | 99.3 | – | –
[2], 10 nM | – | – | 90 | – | –
[2], 100 nM | – | – | 98.1 | – | –
[2], 1000 nM | – | – | 100 | – | –
[2], 10000 nM | – | – | 16.4 | – | –
[3], 1 nM | – | – | 101 | – | –
[3], 10 nM | – | – | 103 | – | –
[3], 100 nM | – | – | 87 | – | –
[3], 1000 nM | – | – | 90.9 | – | –
[3], 10000 nM | – | – | 10.1 | – | –
[4], 1 nM | – | – | 99.9 | – | –
[4], 10 nM | – | – | 101 | – | –
[4], 100 nM | – | – | 95.9 | – | –
[4], 1000 nM | – | – | 100 | – | –
[4], 10000 nM | – | – | 32.2 | – | –
[5], 1 nM | – | – | 96.5 | – | –
[5], 10 nM | – | – | 99 | – | –
[5], 100 nM | – | – | 97.9 | – | –
[5], 1000 nM | – | – | 95.2 | – | –
[5], 10000 nM | – | – | 56.1 | – | –
[6], 0.1 µM | 95 | – | – | – | –
[6], 0.3 µM | 90 | – | – | – | –
[6], 1 µM | 91 | – | – | – | –
[6], 3 µM | 93 | – | – | – | –
[7], 24 h | – | – | – | – | 9.72
[7], 48 h | – | – | – | – | 7.36
[9], 0.1 µM | – | – | – | -0.01 | –
[9], 0.3 µM | – | – | – | 0.17 | –
[9], 1 µM | – | – | – | 0.17 | –
[9], 3 µM | – | – | – | -0.05 | –

drug-induced phospholipidosis [%], [8]
Conditions | 0.3 µM | 0.833333 µM | 3.33333 µM | 6.66667 µM | 10 µM | 30 µM
24 h | -0.01 | -1.75 | 7.04 | 31.6 | 58.6 | 105
48 h | 3.12 | 2.84 | 15.7 | 40.3 | 57.2 | –
72 h | 3.95 | 2.67 | 18.9 | 39.3 | 61.2 | –

Conditions | drug sensitivity score | relative viability EC50 [µM]
[10] | – | 3.19
[11] | – | 2.32
[12] | – | 3.19
[14] | 4.6 | –
[15] | 6.5 | –
[16] | 3.7 | –
[17] | 3 | –
